Experimental data taken from patent US20030013635A1, “Method for the treatment of depression by inhibition of NAALADase” (priority 2001, published 2003).

Test system: socially defeated mice
Test: social defeat (SD) model in the mouse, social interaction with a non-aggressive intruder
Type: in vivo
Text: N-acetylaspartylglutamate (NAAG) is the most abundant peptide neurotransmitter in the brain. Glu release is increased during stress. Inhibiting glutamatergic tone by inhibiting NAALADase proves an antidepressant in the social defeat (SD) model. The SD model is a form of conditioned contextual fear, in which once-defeated mice retain a long-lasting over-generalized fear and avoidance of all mice (even non-aggressive ones) and lose normal species-appropriate territorial defense.
The SD model is a form of conditioned contextual fear, in which once-defeated mice retain a long-lasting over-generalized fear and avoidance of all mice (even non-aggressive ones), losing normal species-appropriate territoriality [Lumley et al., 1999] and displaying immobility in a swim test—a behavior associated with models of depression [Hebert et al., 1998].
Thus, GPI 5232 increased normal territoriality and other species-appropriate social behavior. In sum, this drug diminished behaviors associated with conditioned contextual fear. It is also believed to reduce depression.

In the case of `O=C(O)CCC(CP(=O)(O)Cc1c(F)c(F)c(F)c(F)c1F)C(=O)O` (stereo not drawn) [GPI 5232], the “behaviors associated with conditioned contextual fear” value (SD model) is reported as “markedly diminished”, the “normal territoriality and other species-appropriate social behavior” value (SD model) is reported as “increased” and the “display of territorial behavior in the form of runback re-approaches” value (acute injection, social interaction with a non-aggressive intruder (FIG. 1)) is reported as “significantly increased”.
